Test results as given in patent publication US20060019987A1, “Methods and compositions for inhibiting, destroying, and/or inactivating viruses” (priority 2004, published 2006).

Experiments:
hAd4 (RI-67 strain) = assay: Virucidal efficacy: cytopathic effect of pretreated hAd4 in A549 cell monolayers; format: cell-based; conditions: hAd4 pretreated 1 h at 35° C.; 10^7 PFU (and 1:10 dilution); A549 lung epithelial cells; 2 days post infection; vs PBS-treated virus (marked CPE)
Description: (§1) The experiments included human (hAd) serotypes of species B (hAd3), C (hAd5), and E (hAd4) and the long strain of RSV, representative of A. Two independent experiments were carried out for each virus.
Phosphate buffered saline (PBS) pretreatment of virus suspensions was used as a control.
After the 1-h incubation, 100 μl of the treated virus containing a total of 10^7 to 10^6 plaque forming units (PFU) of virus or their corresponding 1:10 or 1:100 dilutions were used to infect monolayers of A549 lung epithelial cells in quadruplicate 24-well plates. […] Viral cytopathic effect was examined at 2 days post infection. One hundred μl of a dilution 1:10 of the original treated samples containing 10^6 PFU were used to infect additional wells. (C: PBS-treated 1:10; E: SinoFresh® product-treated 1:10; G: CPC-treated 1:10).

RSV (Long strain) = assay: Virucidal efficacy: syncytia formation by pretreated RSV in Hep-2 cell monolayers; format: cell-based; conditions: RSV pretreated 1 h at 35° C.; Hep-2 cells; two experiments (starting 10^7 PFU and 109 PFU); 0.05% CPC
Description: as §1
One hundred microliters (μl) of each virus suspension containing 5×10^6 PFU or 5×10^5 PFU were subsequently used to infect monolayers of Hep-2 cells in quadruplicate in 24-well plates. […] Viral cytopathic effect was examined at 2 days post infection. One hundred μl of a dilution 1:10 of the original treated samples containing […] were used to infect additional wells (Block C: PBS-treated 1:10; E: SinoFresh® product-treated 1:10; G: CPC-treated 1:10).
A second independent experiment was carried out with a starting concentration of 10^9 PFU.

CCCCCCCCCCCCCCCC[n+]1ccccc1 [CPC, 1-hexa-decyl pyridinium chloride]
development of cytopathic effect (CPE) (hAd4 (RI-67 strain)): no obvious CPE
syncytia formation in infected monolayers (RSV (Long strain)): prevented syncytia formation
